Reference: patent US20090137664A1, “SAURURUS CERNUUS COMPOUNDS THAT INHIBIT CELLULAR RESPONSES TO HYPOXIA” (priority 2003, published 2009)

What was measured:
[1] = system: NCI-H322M; test: NCI in vitro cell line screen (SRB), Non-Small Cell Lung Cancer NCI-H322M; assay type: cell-based
Protocol: (§1) For exemplary purposes, an embodiment of the present invention was tested for activity with respect to certain cancer cell lines. The following Tables show results from in vitro 60-cell line antitumor testing from the US National Cancer Institute Developmental Therapeutics Program (NCI-DTP) on compound 2. The testing was in connection with the NCI's In Vitro Cell Line Screening Project (IVCLSP). Detailed information regarding the experiments and their interpretation is available from the NCI.

[2] = system: HCT-116; test: NCI in vitro cell line screen (SRB), Colon Cancer HCT-116; assay type: cell-based
Protocol: as §1

[3] = system: BT-549; test: NCI in vitro cell line screen (SRB), Breast Cancer BT-549; assay type: cell-based
Protocol: as §1

[4] = system: HOP-92; test: NCI in vitro cell line screen (SRB), Non-Small Cell Lung Cancer HOP-92; assay type: cell-based
Protocol: as §1

[5] = system: secreted VEGF protein; test: induction of secreted VEGF protein by 1,10-phenanthroline in T47D cells (ELISA); assay type: cell-based, human; conditions: T47D, 1,10-phenanthroline 10 μM, 16 hr
Protocol: Cell plating and compound treatment is similar to those described earlier for hypoxic conditions. […] At the end of the incubation, the concentration of secreted VEGF protein in the conditioned media is determined by ELISA and the data normalized by the number of viable cells.

[6] = system: HIF-1β protein; test: Western blot, HIF-1β protein in T47D nuclear extract; assay type: cell-based, human
Protocol: Due to the low abundance of HIF-1α protein in whole cell extract, nuclear extract is prepared and the level of HIF-1α protein in the nuclear extract determined by Western blot. Briefly, exponentially grown T47D cells are exposed to compound 2 for 30 minutes. […] Nuclear extracts are prepared from control and treated cells, separated on a SDS/PAGE gel, the separated proteins transferred to a nitrocellulose membrane, incubated with the primary antibodies (anti-HIF-1α, and anti-HIF-1β monoclonal antibodies, Novus Biologicals), secondary antibody biotinylated anti-mouse immunoglobulin G and Vectastain ABC reagent (Vector Laboratories), and developed using ECL reagents (Amersham Biosciences). […] No change in HIF-1β protein level is observed across the treatments. It is reasonable to conclude that the selectivity of compound 2 towards hypoxia-activated HIF-1 is caused by selective blockade of the hypoxic induction of HIF-1 protein.

[7] = system: IGROV1; test: NCI in vitro cell line screen (SRB), Ovarian Cancer IGROV1; assay type: cell-based
Protocol: as §1

[8] = system: SR; test: NCI in vitro cell line screen (SRB), Leukemia SR; assay type: cell-based
Protocol: as §1

[9] = system: HS 578T; test: NCI in vitro cell line screen (SRB), Breast Cancer HS 578T; assay type: cell-based
Protocol: as §1

[10] = system: tumor cell lines; test: NCI in vitro 60-cell line antitumor testing, GI50 pattern; assay type: cell-based; conditions: GI50 60-cell line pattern
Protocol: as §1
Table 2 depicts the GI50 mean bar graph for tumor cell lines, grouped into various categories (such as colon, breast, etc.) The data are arranged to display the relative response selectivity of each cell line relative to one other. This form of data display is used to examine the relative tumor specificity of a text compound. The curves represent the response of each tumor cell line when treated with compound 2.
Antitumor agents with tumor-specific selectivity are highly desired, in order to reduce the incidence of non-selective cytotoxicity to patients. […] This is of special importance since this NCI/ADR-RES cell line is resistant to many currently used antitumor agents such as adriamycin, taxol, and others.

[11] = system: UO-31; test: NCI in vitro cell line screen (SRB), Renal Cancer UO-31; assay type: cell-based
Protocol: as §1

[12] = Homo sapiens, read-out: LC50 (the source's name)

COc1ccc([C@@H](O)[C@@H](C)Oc2ccc([C@H]3O[C@H](c4ccc(O[C@H](C)[C@H](O)c5ccc6c(c5)OCO6)c(OC)c4)[C@H](C)[C@H]3C)cc2OC)cc1OC [Compound 2, manassantin B]
TGI [1]: >1.00E−4 Molar
GI50 ([1]; Homo sapiens): 19.7 µM
LC50 ([1]; Homo sapiens): > 100 µM
Mean Optical Densities ([1]; Log10 Concentration −4.0 Molar): 1.146
Percent Growth ([1]; Log10 Concentration −4.0 Molar): 28%
Mean Optical Densities ([1]; Log10 Concentration −5.0 Molar): 1.266
Percent Growth ([1]; Log10 Concentration −5.0 Molar): 59%
Mean Optical Densities ([1]; Log10 Concentration −6.0 Molar): 1.380
Percent Growth ([1]; Log10 Concentration −6.0 Molar): 89%
Mean Optical Densities ([1]; Log10 Concentration −7.0 Molar): 1.370
Percent Growth ([1]; Log10 Concentration −7.0 Molar): 86%
Mean Optical Densities ([1]; Log10 Concentration −8.0 Molar): 1.315
Percent Growth ([1]; Log10 Concentration −8.0 Molar): 72%
TGI [2]: >1.00E−4 Molar
GI50 ([2]; Homo sapiens): 2.25 µM
CC50 [2, 12]: > 100 µM
Mean Optical Densities ([2]; Log10 Concentration −4.0 Molar): 0.329
Percent Growth ([2]; Log10 Concentration −4.0 Molar): 15%
Mean Optical Densities ([2]; Log10 Concentration −5.0 Molar): 0.498
Percent Growth ([2]; Log10 Concentration −5.0 Molar): 32%
Mean Optical Densities ([2]; Log10 Concentration −6.0 Molar): 0.770
Percent Growth ([2]; Log10 Concentration −6.0 Molar): 60%
Mean Optical Densities ([2]; Log10 Concentration −7.0 Molar): 0.867
Percent Growth ([2]; Log10 Concentration −7.0 Molar): 70%
Mean Optical Densities ([2]; Log10 Concentration −8.0 Molar): 0.978
Percent Growth ([2]; Log10 Concentration −8.0 Molar): 81%
TGI [3]: 1.32E−5 Molar
GI50 ([3]; Homo sapiens): 1.07 µM
CC50 [3, 12]: > 100 µM
Mean Optical Densities ([3]; Log10 Concentration −4.0 Molar): 0.474
Percent Growth ([3]; Log10 Concentration −4.0 Molar): −22%
Mean Optical Densities ([3]; Log10 Concentration −5.0 Molar): 0.620
Percent Growth ([3]; Log10 Concentration −5.0 Molar): 3%
Mean Optical Densities ([3]; Log10 Concentration −6.0 Molar): 0.813
Percent Growth ([3]; Log10 Concentration −6.0 Molar): 51%
Mean Optical Densities ([3]; Log10 Concentration −7.0 Molar): 0.868
Percent Growth ([3]; Log10 Concentration −7.0 Molar): 65%
Mean Optical Densities ([3]; Log10 Concentration −8.0 Molar): 0.838
Percent Growth ([3]; Log10 Concentration −8.0 Molar): 58%
TGI [4]: 2.45E−5 Molar
GI50 ([4]; Homo sapiens): 1.98 µM
LC50 ([4]; Homo sapiens): > 100 µM
Mean Optical Densities ([4]; Log10 Concentration −4.0 Molar): 0.490
Percent Growth ([4]; Log10 Concentration −4.0 Molar): −30%
Mean Optical Densities ([4]; Log10 Concentration −5.0 Molar): 0.744
Percent Growth ([4]; Log10 Concentration −5.0 Molar): 19%
Mean Optical Densities ([4]; Log10 Concentration −6.0 Molar): 0.846
Percent Growth ([4]; Log10 Concentration −6.0 Molar): 63%
Mean Optical Densities ([4]; Log10 Concentration −7.0 Molar): 0.947
Percent Growth ([4]; Log10 Concentration −7.0 Molar): 107%
Mean Optical Densities ([4]; Log10 Concentration −8.0 Molar): 0.971
Percent Growth ([4]; Log10 Concentration −8.0 Molar): 117%
effect on the induction of secreted VEGF protein by 1,10-phenanthroline [5]: does not effect
HIF-1β protein level [6]: No change
TGI [7]: >1.00E−4 Molar
GI50 ([7]; Homo sapiens, IGROV-1): 14 µM
CC50 ([7]; Homo sapiens, IGROV-1, read-out: LC50 (the source's name)): > 100 µM
Mean Optical Densities ([7]; Log10 Concentration −4.0 Molar): 0.336
Percent Growth ([7]; Log10 Concentration −4.0 Molar): 13%
Mean Optical Densities ([7]; Log10 Concentration −5.0 Molar): 0.500
Percent Growth ([7]; Log10 Concentration −5.0 Molar): 56%
Mean Optical Densities ([7]; Log10 Concentration −6.0 Molar): 0.674
Percent Growth ([7]; Log10 Concentration −6.0 Molar): 102%
Mean Optical Densities ([7]; Log10 Concentration −7.0 Molar): 0.674
Percent Growth ([7]; Log10 Concentration −7.0 Molar): 102%
Mean Optical Densities ([7]; Log10 Concentration −8.0 Molar): 0.721
Percent Growth ([7]; Log10 Concentration −8.0 Molar): 114%
TGI [8]: >1.00E−4 Molar
CC50 [8, 12]: > 100 µM
Mean Optical Densities ([8]; Log10 Concentration −4.0 Molar): 0.429
Percent Growth ([8]; Log10 Concentration −4.0 Molar): 22%
Mean Optical Densities ([8]; Log10 Concentration −5.0 Molar): 0.561
Percent Growth ([8]; Log10 Concentration −5.0 Molar): 39%
Mean Optical Densities ([8]; Log10 Concentration −6.0 Molar): 0.685
Percent Growth ([8]; Log10 Concentration −6.0 Molar): 54%
Mean Optical Densities ([8]; Log10 Concentration −7.0 Molar): 0.637
Percent Growth ([8]; Log10 Concentration −7.0 Molar): 48%
Mean Optical Densities ([8]; Log10 Concentration −8.0 Molar): 0.616
Percent Growth ([8]; Log10 Concentration −8.0 Molar): 46%
TGI [9]: >1.00E−4 Molar
GI50 ([9]; Homo sapiens): 10.4 µM
CC50 [9, 12]: > 100 µM
Mean Optical Densities ([9]; Log10 Concentration −4.0 Molar): 0.834
Percent Growth ([9]; Log10 Concentration −4.0 Molar): 17%
Mean Optical Densities ([9]; Log10 Concentration −5.0 Molar): 1.018
Percent Growth ([9]; Log10 Concentration −5.0 Molar): 51%
Mean Optical Densities ([9]; Log10 Concentration −6.0 Molar): 1.188
Percent Growth ([9]; Log10 Concentration −6.0 Molar): 82%
Mean Optical Densities ([9]; Log10 Concentration −7.0 Molar): 1.267
Percent Growth ([9]; Log10 Concentration −7.0 Molar): 96%
Mean Optical Densities ([9]; Log10 Concentration −8.0 Molar): 1.222
Percent Growth ([9]; Log10 Concentration −8.0 Molar): 88%
selectivity for tumor cell lines [10]: up to 10,000 fold
TGI [11]: >1.00E−4 Molar
GI50 ([11]; Homo sapiens): 3.9 µM
CC50 [11, 12]: > 100 µM
Mean Optical Densities ([11]; Log10 Concentration −4.0 Molar): 0.786
Percent Growth ([11]; Log10 Concentration −4.0 Molar): 33%
Mean Optical Densities ([11]; Log10 Concentration −5.0 Molar): 0.841
Percent Growth ([11]; Log10 Concentration −5.0 Molar): 39%
Mean Optical Densities ([11]; Log10 Concentration −6.0 Molar): 1.102
Percent Growth ([11]; Log10 Concentration −6.0 Molar): 66%
Mean Optical Densities ([11]; Log10 Concentration −7.0 Molar): 1.189
Percent Growth ([11]; Log10 Concentration −7.0 Molar): 75%
Mean Optical Densities ([11]; Log10 Concentration −8.0 Molar): 1.250
Percent Growth ([11]; Log10 Concentration −8.0 Molar): 81%
